Test results reported in ChEMBL document CHEMBL1201862, “PubChem BioAssay data set” (2004).
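The compound was tested at five concentrations on cells cultured in 96-well plates, with a 48-hour exposure period. Abbreviation: GI50, concentration required for 50% inhibition of growth.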 Activity calls are given as the source filed them. No stated cut-off is given here; in the data, active = GI50 up to about 1.1 µM and inactive = higher.

What was measured:
Assay in all cases: NCI anticancer screen, dose series, 48 h
SF-268 = system: SF-268
MCF7 = system: MCF7
DMS-114 = system: DMS-114
OVCAR-4 = system: OVCAR-4
U-251 = system: U-251
NCI-H522 = system: NCI-H522
LOX IMVI = system: LOX IMVI
CCRF-CEM = system: CCRF-CEM
Malme-3M = system: Malme-3M
HOP-92 = system: HOP-92
OVCAR-8 = system: OVCAR-8
UO-31 = system: UO-31
OVCAR-5 = system: OVCAR-5
K562 = system: K562
SK-OV-3 = system: SK-OV-3
HCT-116 = system: HCT-116
SF-295 = system: SF-295
SK-MEL-5 = system: SK-MEL-5
HOP-62 = system: HOP-62
ACHN = system: ACHN

Measured: GI50

O=NN(CCCl)C(=O)N[C@H]1CC[C@@H](O)CC1
inactive: SF-268 13.6 µM | MCF7 31.6 µM | DMS-114 20.7 µM | OVCAR-4 60.4 µM | U-251 20.6 µM | NCI-H522 20.8 µM | LOX IMVI 26.1 µM | CCRF-CEM 12.8 µM | Malme-3M 24.8 µM | HOP-92 8.43 µM | OVCAR-8 33 µM | UO-31 72.4 µM | OVCAR-5 > 100 µM | K562 23.6 µM | SK-OV-3 > 100 µM | HCT-116 34 µM | SF-295 24 µM | SK-MEL-5 52.4 µM | HOP-62 46.3 µM

CCOC(=O)Cn1c(=O)c(C)cn(COCCO)c1=O
inactive: SF-268 > 100 µM | MCF7 > 100 µM | OVCAR-4 > 100 µM | U-251 > 100 µM | NCI-H522 > 100 µM | LOX IMVI > 100 µM | CCRF-CEM > 10 µM | Malme-3M > 100 µM | ACHN > 100 µM | HOP-92 > 100 µM | OVCAR-8 > 100 µM | UO-31 > 100 µM | OVCAR-5 > 100 µM | K562 > 100 µM | SK-MEL-5 > 100 µM | HOP-62 > 100 µM

Cc1cccc2ns[s+]c12
inactive: SF-268 82 µM | DMS-114 20.5 µM | OVCAR-4 > 100 µM | U-251 33.9 µM | CCRF-CEM 33.3 µM | Malme-3M > 100 µM | ACHN > 100 µM | HOP-92 > 100 µM | OVCAR-8 47.1 µM | UO-31 53 µM | OVCAR-5 > 100 µM | K562 29.9 µM | SK-OV-3 > 100 µM | HCT-116 20 µM | SF-295 > 100 µM | SK-MEL-5 89.7 µM | HOP-62 > 100 µM

CCN1CCCC(NCc2c3ccccc3c(CNC3CCCN(CC)C3)c3ccccc23)C1 (stereo unspecified)
inactive: SF-268 7.8 µM | MCF7 2.86 µM | DMS-114 4.99 µM | OVCAR-4 5.2 µM | U-251 11.8 µM | NCI-H522 2.49 µM | LOX IMVI 6.37 µM | CCRF-CEM 3.34 µM | Malme-3M 21.6 µM | HOP-92 11.1 µM | OVCAR-8 > 33.7 µM | UO-31 24.8 µM | OVCAR-5 5.96 µM | K562 7.85 µM | SK-OV-3 10.1 µM | HCT-116 4.5 µM | SF-295 4.67 µM | SK-MEL-5 14.1 µM | HOP-62 19.6 µM

CCCCS(=N)(=O)CC[C@H](N)C(=O)O (stereo partly specified) [BUTHIONINE SULFOXIME]
inactive: SF-268 4260 µM | MCF7 > 4190 µM | DMS-114 > 5000 µM | OVCAR-4 2290 µM | U-251 > 5000 µM | NCI-H522 140 µM | LOX IMVI 237 µM | CCRF-CEM 1040 µM | Malme-3M > 5000 µM | ACHN > 5000 µM | HOP-92 171 µM | OVCAR-8 2320 µM | UO-31 2480 µM | OVCAR-5 > 5000 µM | K562 > 5000 µM | SK-OV-3 > 5000 µM | HCT-116 > 5000 µM | SF-295 > 5000 µM | SK-MEL-5 > 5000 µM | HOP-62 > 5000 µM
